Reference: ChEMBL document CHEMBL1201862, “PubChem BioAssay data set” (2004)
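In this assay, cells in 96-well plates receive the compound at five concentrations for 48 hours. Endpoints are linearly interpolated between the surrounding concentrations. At the GI50, growth is halved.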 Activity calls are given as the source filed them. No stated cut-off is given here; in the data, active = GI50 up to about 1.1 µM and inactive = higher.

Experiments:
Experiment in all cases: DTP human tumour cell line panel, 48 h
KM12 = test system: KM12
HCT-15 = test system: HCT-15
DU-145 = test system: DU-145
NCI/ADR-RES = test system: NCI/ADR-RES
HL-60 = test system: HL-60
MCF7 = test system: MCF7
NCI-H522 = test system: NCI-H522
SNB-75 = test system: SNB-75
HCC 2998 = test system: HCC 2998
COLO 205 = test system: COLO 205
SK-MEL-2 = test system: SK-MEL-2
SF-268 = test system: SF-268
CAKI-1 = test system: CAKI-1
Malme-3M = test system: Malme-3M
IGROV-1 = test system: IGROV-1
SNB-19 = test system: SNB-19
BT-549 = test system: BT-549
OVCAR-8 = test system: OVCAR-8
T47D = test system: T47D
MDA-N = test system: MDA-N

SMILES	GI50 (KM12)	GI50 (HCT-15) [µM]	GI50 (DU-145)	GI50 (NCI/ADR-RES)	GI50 (HL-60)	GI50 (MCF7)	GI50 (NCI-H522)	GI50 (SNB-75)	GI50 (HCC 2998)	GI50 (COLO 205)	GI50 (SK-MEL-2)	GI50 (SF-268)	GI50 (CAKI-1)	GI50 (Malme-3M)	GI50 (IGROV-1)	GI50 (SNB-19)	GI50 (BT-549)	GI50 (OVCAR-8)	GI50 (T47D)	GI50 (MDA-N)
COc1cc2nc(-c3cccs3)nc(N3CCN(c4ccccc4C(F)(F)F)CC3)c2cc1OC	75.5 µM (inactive)	> 100	> 100 µM (inactive)	> 100 µM (inactive)	3.87 µM (inactive)	46.2 µM (inactive)	90.4 µM (inactive)	> 100 µM (inactive)	> 100 µM (inactive)	> 100 µM (inactive)	> 100 µM (inactive)	60.3 µM (inactive)	25.2 µM (inactive)	> 100 µM (inactive)	25.9 µM (inactive)	> 100 µM (inactive)	> 100 µM (inactive)	93.3 µM (inactive)	> 100 µM (inactive)	
CC(=O)O[C@H]1CC[C@@]2(C)C(=CC[C@H]3[C@@H]4C/C(=C\c5ccc(N(C)C)cc5)[C@H](OC(C)=O)[C@@]4(C)CC[C@@H]32)C1	11.9 µM (inactive)	6.27	23.8 µM (inactive)	13.1 µM (inactive)	11.5 µM (inactive)	7.62 µM (inactive)		15.8 µM (inactive)		4.54 µM (inactive)	8.53 µM (inactive)	12.7 µM (inactive)		12.6 µM (inactive)	13.8 µM (inactive)	13 µM (inactive)	12 µM (inactive)	11.3 µM (inactive)	5.56 µM (inactive)	13.5 µM (inactive)
COC(=O)CNC(=O)CSc1nnc(COc2ccc(Cl)cc2)n1-c1ccccc1	56.9 µM (inactive)	> 100	16.3 µM (inactive)	> 100 µM (inactive)	30.1 µM (inactive)	79.6 µM (inactive)	15.3 µM (inactive)	17.3 µM (inactive)	25.3 µM (inactive)	> 100 µM (inactive)	23.5 µM (inactive)	22.2 µM (inactive)	16.9 µM (inactive)	41.3 µM (inactive)	21 µM (inactive)	> 100 µM (inactive)		31 µM (inactive)	26.6 µM (inactive)	19.2 µM (inactive)
O/N=C1\SC(=N\O)/C(=N/O)S\C1=N/O	79.4 µM (inactive)	> 100	> 100 µM (inactive)	> 100 µM (inactive)	21 µM (inactive)	> 100 µM (inactive)	16.2 µM (inactive)	> 100 µM (inactive)	> 100 µM (inactive)	> 100 µM (inactive)	> 100 µM (inactive)		> 100 µM (inactive)	> 100 µM (inactive)	> 100 µM (inactive)	> 100 µM (inactive)	> 100 µM (inactive)	> 100 µM (inactive)		73.8 µM (inactive)
Nc1c(F)c(F)c2c(c1F)N(CCCCCl)c1ccccc1S2	> 100 µM (inactive)	> 100	> 100 µM (inactive)	> 100 µM (inactive)	> 100 µM (inactive)	> 100 µM (inactive)	> 100 µM (inactive)	74.6 µM (inactive)	> 100 µM (inactive)	> 100 µM (inactive)	> 100 µM (inactive)	> 100 µM (inactive)	> 100 µM (inactive)	> 100 µM (inactive)	> 100 µM (inactive)	> 100 µM (inactive)	> 100 µM (inactive)		> 100 µM (inactive)	
N#Cc1c(=O)c2ccccc2n2c1[nH]c1ccccc12	27.4 µM (inactive)	17.6	33.9 µM (inactive)	15.3 µM (inactive)	18.7 µM (inactive)	56.2 µM (inactive)		43.1 µM (inactive)	58.3 µM (inactive)	43.1 µM (inactive)	47.3 µM (inactive)	31.5 µM (inactive)	35.2 µM (inactive)		16.1 µM (inactive)	42.5 µM (inactive)	58.3 µM (inactive)	27.6 µM (inactive)	22.7 µM (inactive)	
CC(C)n1c(=O)[nH]n(-c2ccccc2)c1=O	> 100 µM (inactive)	> 100	> 100 µM (inactive)	> 100 µM (inactive)	> 100 µM (inactive)	> 100 µM (inactive)	> 100 µM (inactive)	> 100 µM (inactive)		> 100 µM (inactive)	> 100 µM (inactive)	> 100 µM (inactive)	> 100 µM (inactive)	> 100 µM (inactive)	> 100 µM (inactive)	> 100 µM (inactive)		> 100 µM (inactive)		> 100 µM (inactive)
c1ccc(C2=C(c3ccccc3)P(c3ccccc3)C2)cc1 (stereo not given)	49.7 µM (inactive)	> 100	> 100 µM (inactive)	40.1 µM (inactive)		> 100 µM (inactive)	47.6 µM (inactive)	32.7 µM (inactive)	> 100 µM (inactive)	> 100 µM (inactive)	> 100 µM (inactive)	> 100 µM (inactive)	> 100 µM (inactive)	67.1 µM (inactive)	64.3 µM (inactive)			89.7 µM (inactive)	> 100 µM (inactive)	> 100 µM (inactive)
CC(=O)Nc1ccccc1NC1CC(C)N(c2ccccc2)N1C(C)=O (stereo not given)	> 10 µM (inactive)	> 10	> 10 µM (inactive)		> 10 µM (inactive)	> 10 µM (inactive)		> 10 µM (inactive)	> 10 µM (inactive)	> 10 µM (inactive)		> 10 µM (inactive)	> 10 µM (inactive)	> 10 µM (inactive)	> 10 µM (inactive)			> 10 µM (inactive)	> 10 µM (inactive)	> 10 µM (inactive)
Cc1ccc(N(C(=O)Nc2ccccc2)C2=NCC(C)S2)cc1C (stereo not given)	17.8 µM (inactive)	15.4	31.4 µM (inactive)	14.8 µM (inactive)	20.1 µM (inactive)	12.8 µM (inactive)		24.4 µM (inactive)	> 10 µM (inactive)	19.4 µM (inactive)	17.4 µM (inactive)	24 µM (inactive)	> 10 µM (inactive)	20.3 µM (inactive)	22.4 µM (inactive)	33.3 µM (inactive)		29.2 µM (inactive)	14.8 µM (inactive)	17.6 µM (inactive)
O=c1c(Sc2c(SCSc3cnc4ccccc4c3Sc3c[nH]c4ccccc4c3=O)cnc3ccccc23)c[nH]c2ccccc12	> 100 µM (inactive)	96.8	> 100 µM (inactive)	> 100 µM (inactive)	0.54 µM (active)		> 100 µM (inactive)	> 100 µM (inactive)	> 100 µM (inactive)	> 100 µM (inactive)	> 10 µM (inactive)	92.3 µM (inactive)	> 100 µM (inactive)		88.9 µM (inactive)	46.6 µM (inactive)	> 100 µM (inactive)	> 100 µM (inactive)	> 100 µM (inactive)	> 100 µM (inactive)
Cc1onc(-c2c(F)cccc2Cl)c1C(=O)N[C@@H]1C(=O)N2[C@@H]1SC(C)(C)[C@@H]2C(=O)O	> 100 µM (inactive)	> 100	> 100 µM (inactive)	> 100 µM (inactive)		> 100 µM (inactive)	> 100 µM (inactive)	> 100 µM (inactive)		> 100 µM (inactive)	> 100 µM (inactive)	> 100 µM (inactive)	> 100 µM (inactive)	> 100 µM (inactive)	> 100 µM (inactive)	> 100 µM (inactive)	> 100 µM (inactive)	> 100 µM (inactive)	> 100 µM (inactive)	> 100 µM (inactive)
C(=N\CCCN1CCN(CCC/N=C/c2cccc3ccccc23)CC1)/c1cccc2ccccc12	> 100 µM (inactive)	34.8		38.8 µM (inactive)			> 100 µM (inactive)	29.9 µM (inactive)	> 100 µM (inactive)	> 100 µM (inactive)	> 100 µM (inactive)	> 100 µM (inactive)	> 100 µM (inactive)	> 100 µM (inactive)	> 100 µM (inactive)	60.7 µM (inactive)	22.8 µM (inactive)	> 100 µM (inactive)	> 100 µM (inactive)	20 µM (inactive)
CC(C)(C)OC(=O)CC(NC(=O)OC(C)(C)C)C(=O)Oc1ccc([N+](=O)[O-])cc1 (stereo not given)	> 100 µM (inactive)	> 100	> 100 µM (inactive)	> 100 µM (inactive)		> 100 µM (inactive)	> 100 µM (inactive)	> 100 µM (inactive)		> 100 µM (inactive)	> 100 µM (inactive)	3.2 µM (inactive)	> 100 µM (inactive)	> 100 µM (inactive)	> 100 µM (inactive)	> 100 µM (inactive)	> 100 µM (inactive)	> 100 µM (inactive)	89.5 µM (inactive)	> 100 µM (inactive)
N=c1n(CC(=O)NC23CC4CC(CC(C4)C2)C3)c2ccccc2n1CC(=O)NC12CC3CC(CC(C3)C1)C2	1.61 µM (inactive)	1.9			2.67 µM (inactive)		1.9 µM (inactive)	2.29 µM (inactive)	1.36 µM (inactive)	1.89 µM (inactive)	17.2 µM (inactive)	1.95 µM (inactive)	12 µM (inactive)	1.67 µM (inactive)	1.56 µM (inactive)	1.66 µM (inactive)		1.68 µM (inactive)		
COc1cc(C2c3cccc4cccc(c34)C3CCC(=O)N32)cc(O)c1O (stereo not given)	> 50 µM (inactive)	23.7	> 50 µM (inactive)	37.7 µM (inactive)	14.6 µM (inactive)	20.6 µM (inactive)		> 50 µM (inactive)		> 50 µM (inactive)	> 50 µM (inactive)				26.9 µM (inactive)	> 50 µM (inactive)	> 50 µM (inactive)	27.9 µM (inactive)	29.9 µM (inactive)	22.3 µM (inactive)
